Columns and labels:
HT-29 = test: cells; settings: Homo sapiens, HT-29, 48 h; for GI50: read-out: HT29 GI50; for CC50: read-out: HT29 LC50; for IC (TGI): read-out: HT29 TGI
Outline: (§1)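 Colorimetric SRB read (490 nm) on triplicate wells after 48 h at 37 °C, 5% CO2. Dose range 10 to 10^−8 μg/ml; 5×10^3 cells/well pre-attached 18 h.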

A-549 = test: cells; settings: Homo sapiens, A549, 48 h; for GI50: read-out: A549 GI50; for CC50: read-out: A549 LC50; for IC (TGI): read-out: A549 TGI
Outline: as §1

LoVo = test: cells; settings: Homo sapiens, LoVo, 48 h; for GI50: read-out: LOVO GI50; for CC50: read-out: LOVO LC50; for IC (TGI): read-out: LOVO TGI
Outline: as §1

LNCaP = test: Inhibition of cells growth by colorimetric assay (SRB); settings: Homo sapiens, LNCaP, 48 h; for GI50: read-out: LNCAP GI50; for CC50: read-out: LNCAP LC50; for IC (TGI): read-out: LNCAP TGI
Outline: as §1

HeLa = test: as above; settings: Homo sapiens, HeLa, 48 h; for GI50: read-out: HELA GI50; for CC50: read-out: HELA LC50; for IC (TGI): read-out: HELA TGI
Outline: as §1

SK-BR-3 = test: as above; settings: Homo sapiens, SK-BR-3, 48 h; for GI50: read-out: SK-BR3 GI50; for CC50: read-out: SK-BR3 LC50; for IC (TGI): read-out: SK-BR3 TGI
Outline: as §1

K-562 = test: as above; settings: Homo sapiens, K562, 48 h; for GI50: read-out: K562 GI50; for CC50: read-out: K562 LC50; for IC (TGI): read-out: K562 TGI
Outline: as §1

LoVo-Dox = test: as above; settings: Homo sapiens, 48 h; for GI50: read-out: LOVO-DOX GI50; for CC50: read-out: LOVO-DOX LC50; for IC (TGI): read-out: LOVO-DOX TGI
Outline: as §1

DU-145 = test: as above; settings: Homo sapiens, DU-145, 48 h; for GI50: read-out: DU145 GI50; for CC50: read-out: DU145 LC50; for IC (TGI): read-out: DU145 TGI
Outline: as §1

IGROV-1 = test: as above; settings: Homo sapiens, IGROV-1, 48 h; for GI50: read-out: IGROV GI50; for CC50: read-out: IGROV LC50; for IC (TGI): read-out: IGROV TGI
Outline: as §1

HeLa-APL = test: as above; settings: Homo sapiens, 48 h; for GI50: read-out: HELA-APL GI50; for CC50: read-out: HELA-APL LC50; for IC (TGI): read-out: HELA-APL TGI
Outline: as §1

SK-MEL-28 = test: as above; settings: Homo sapiens, SK-MEL-28, 48 h; for GI50: read-out: MEL-28 GI50; for CC50: read-out: MEL-28 LC50; for IC (TGI): read-out: MEL-28 TGI
Outline: as §1

PANC-1 = test: as above; settings: Homo sapiens, PANC-1, 48 h; for GI50: read-out: PANC-1 GI50; for CC50: read-out: PANC-1 LC50; for IC (TGI): read-out: PANC-1 TGI
Outline: as §1

IGROV-ET = test: as above; settings: Homo sapiens, 48 h; for GI50: read-out: IGROV-ET GI50; for CC50: read-out: IGROV-ET LC50; for IC (TGI): read-out: IGROV-ET TGI
Outline: as §1

Which results are given for `C=CCN1[C@@H]2c3c(cc(C)c(OC)c3O)C[C@H]1[C@H](C#N)N1C2[C@@H]2SC[C@]3(NCCc4cc(OC(=O)OC(C)(C)C)c(OC)cc43)C(=O)OC[C@H]1c1c3c(c(C)c(OC(=O)CCCCCCC)c12)OCO3` (some centres unmarked) [compound 48]?
GI50 (HT-29): 6.71 µM; CC50 (HT-29): 10.2 µM; IC (TGI) (HT-29): 10.2 µM; GI50 (A-549): 8.1 µM; CC50 (A-549): 10.2 µM; IC (TGI) (A-549): 10.2 µM; GI50 (LoVo): 4.01 µM; CC50 (LoVo): 10.2 µM; IC (TGI) (LoVo): 10.2 µM; GI50 (LNCaP): 1.67 µM; CC50 (LNCaP): 6.31 µM; IC (TGI) (LNCaP): 3.24 µM; GI50 (HeLa): 2.17 µM; CC50 (HeLa): 10.2 µM; IC (TGI) (HeLa): 5.11 µM; GI50 (SK-BR-3): 0.682 µM; CC50 (SK-BR-3): 10.2 µM; IC (TGI) (SK-BR-3): 4 µM; GI50 (K-562): 0.515 µM; CC50 (K-562): 10.2 µM; IC (TGI) (K-562): 2.73 µM; GI50 (LoVo-Dox): 10.2 µM; CC50 (LoVo-Dox): 10.2 µM; IC (TGI) (LoVo-Dox): 10.2 µM; GI50 (DU-145): 2.55 µM; CC50 (DU-145): 10.2 µM; IC (TGI) (DU-145): 6.26 µM; GI50 (IGROV-1): 3.52 µM; CC50 (IGROV-1): 10.2 µM; IC (TGI) (IGROV-1): 10.2 µM; GI50 (HeLa-APL): 1.87 µM; CC50 (HeLa-APL): 7.87 µM; IC (TGI) (HeLa-APL): 3.83 µM; GI50 (SK-MEL-28): 3.19 µM; CC50 (SK-MEL-28): 10.2 µM; IC (TGI) (SK-MEL-28): 10.2 µM; GI50 (PANC-1): 4.42 µM; CC50 (PANC-1): 10.2 µM; IC (TGI) (PANC-1): 10.2 µM; GI50 (IGROV-ET): 3.72 µM; CC50 (IGROV-ET): 10.2 µM; IC (TGI) (IGROV-ET): 10.2 µM

For `C=CCN1[C@@H]2c3c(cc(C)c(OC)c3O)C[C@H]1[C@H](C#N)N1C2[C@@H]2SC[C@]3(NCCc4cc(O)c(OC)cc43)C(=O)OC[C@H]1c1c3c(c(C)c(OC(=O)/C=C/c4ccccc4)c12)OCO3` (some centres unmarked) [compound 49], which GI50 (HT-29) is on record?
Its GI50 is 0.194 µM.

And the CC50 (HT-29)?
The CC50 was 11.3 µM.

And the IC (TGI) (HT-29)?
The IC (TGI) was 0.588 µM.

What about the GI50 (A-549) of the same compound?
Its GI50 is 0.184 µM.

What about the CC50 (A-549) of the same compound?
Its CC50 is 1.01 µM.

What about the IC (TGI) (A-549) of the same compound?
The IC (TGI) was 0.431 µM.

What about the GI50 (LoVo) of the same compound?
Its GI50 is 0.25 µM.

What about the CC50 (LoVo) of the same compound?
The CC50 was 0.89 µM.

What about the IC (TGI) (LoVo) of the same compound?
The IC (TGI) was 0.471 µM.

And the GI50 (LNCaP)?
The GI50 was 0.0405 µM.

And the CC50 (LNCaP)?
The CC50 was 0.442 µM.

And the IC (TGI) (LNCaP)?
The IC (TGI) was 0.175 µM.

And the GI50 (HeLa)?
Its GI50 is 0.189 µM.

And the CC50 (HeLa)?
The CC50 was 0.929 µM.

And the IC (TGI) (HeLa)?
The IC (TGI) was 0.418 µM.

And the GI50 (SK-BR-3)?
The GI50 was 0.0496 µM.

What about the CC50 (SK-BR-3) of the same compound?
Its CC50 is 11.3 µM.

And the IC (TGI) (SK-BR-3)?
Its IC (TGI) is 1.86 µM.

And the GI50 (K-562)?
Its GI50 is 0.0377 µM.

What about the CC50 (K-562) of the same compound?
Its CC50 is 5.1 µM.

And the IC (TGI) (K-562)?
The IC (TGI) was 0.311 µM.

What about the GI50 (LoVo-Dox) of the same compound?
The GI50 was 0.672 µM.

What about the CC50 (LoVo-Dox) of the same compound?
The CC50 was 11.3 µM.

What about the IC (TGI) (LoVo-Dox) of the same compound?
Its IC (TGI) is 11.3 µM.

What about the GI50 (DU-145) of the same compound?
The GI50 was 0.107 µM.

What about the CC50 (DU-145) of the same compound?
Its CC50 is 11.3 µM.

What about the IC (TGI) (DU-145) of the same compound?
The IC (TGI) was 1.25 µM.

And the GI50 (IGROV-1)?
The GI50 was 0.165 µM.

What about the CC50 (IGROV-1) of the same compound?
The CC50 was 1.13 µM.

And the IC (TGI) (IGROV-1)?
Its IC (TGI) is 0.432 µM.

What about the GI50 (HeLa-APL) of the same compound?
The GI50 was 0.182 µM.

And the CC50 (HeLa-APL)?
The CC50 was 0.701 µM.

And the IC (TGI) (HeLa-APL)?
The IC (TGI) was 0.357 µM.

And the GI50 (SK-MEL-28)?
The GI50 was 0.181 µM.

What about the CC50 (SK-MEL-28) of the same compound?
The CC50 was 0.701 µM.

What about the IC (TGI) (SK-MEL-28) of the same compound?
The IC (TGI) was 0.356 µM.

What about the GI50 (PANC-1) of the same compound?
The GI50 was 0.179 µM.

What about the CC50 (PANC-1) of the same compound?
The CC50 was 3.92 µM.

What about the IC (TGI) (PANC-1) of the same compound?
The IC (TGI) was 0.564 µM.

And the GI50 (IGROV-ET)?
The GI50 was 0.28 µM.

What about the CC50 (IGROV-ET) of the same compound?
Its CC50 is 11.3 µM.

And the IC (TGI) (IGROV-ET)?
Its IC (TGI) is 0.616 µM.

What does the source list for `C=CCN1[C@@H]2c3c(cc(C)c(OC)c3O)C[C@H]1[C@H](C#N)N1C2[C@@H]2SC[C@]3(NCCc4cc(O)c(OC)cc43)C(=O)OC[C@H]1c1c3c(c(C)c(OC(=O)CCCCCCC)c12)OCO3` (some centres unmarked) [compound 50]?
GI50 (HT-29): 8.9 µM; CC50 (HT-29): 11.3 µM; IC (TGI) (HT-29): 11.3 µM; GI50 (A-549): 3.76 µM; CC50 (A-549): 11.3 µM; IC (TGI) (A-549): 11.3 µM; GI50 (LoVo): 4.94 µM; CC50 (LoVo): 11.3 µM; IC (TGI) (LoVo): 11.3 µM; GI50 (LNCaP): 0.948 µM; CC50 (LNCaP): 11.3 µM; IC (TGI) (LNCaP): 3.68 µM; GI50 (HeLa): 3.75 µM; CC50 (HeLa): 11.3 µM; IC (TGI) (HeLa): 11.3 µM; GI50 (SK-BR-3): 13.1 µM; CC50 (SK-BR-3): 11.3 µM; IC (TGI) (SK-BR-3): 11.3 µM; GI50 (K-562): 0.891 µM; CC50 (K-562): 11.3 µM; IC (TGI) (K-562): 11.3 µM; GI50 (LoVo-Dox): 10.1 µM; CC50 (LoVo-Dox): 11.3 µM; IC (TGI) (LoVo-Dox): 11.3 µM; GI50 (DU-145): 1.8 µM; CC50 (DU-145): 1130 µM; IC (TGI) (DU-145): 918 µM; GI50 (IGROV-1): 2.42 µM; CC50 (IGROV-1): 1130 µM; IC (TGI) (IGROV-1): 11.3 µM; GI50 (HeLa-APL): 3.11 µM; CC50 (HeLa-APL): 11.3 µM; GI50 (SK-MEL-28): 2.53 µM; CC50 (SK-MEL-28): 11.3 µM; IC (TGI) (SK-MEL-28): 8.36 µM; GI50 (PANC-1): 2.45 µM; CC50 (PANC-1): 11.3 µM; IC (TGI) (PANC-1): 11.3 µM; GI50 (IGROV-ET): 3.29 µM; CC50 (IGROV-ET): 11.3 µM; IC (TGI) (IGROV-ET): 11.3 µM

From US7767659B2, “Synthesis of naturally occurring ecteinascidins and related compounds” (Pharma Mar, S.A., priority 2002, dated 2010)
